Reference: patent US5641798A, “Bicyclic compounds and their use as excitatory amino acid receptor antagonists” (Eli Lilly and Company, priority 1995, dated 1997)
“And” between values parts separate entries of the source, which are not always exact repeats. Equal entries are not always repeated. Where two headings read alike, the source gives them in different places.

Legend:
NMDA receptor [1] = assay: [3H]CGS19755 radioligand binding to Triton-X-treated synaptosomal membranes of rat forebrain; parameters: species or system rat (male Sprague-Dawley); settings: [3H]CGS19755 10 nM, ice-bath 30 min, mean, standard error, n=3
Description: The formula I compounds were tested for their ability to inhibit NMDA receptor binding to rat membranes in a radioligand binding assay using [^3 H]CGS19755. For these radioligand binding assays, male Sprague-Dawley rats were used. Displacement of the specific binding [^3 H]CGS19755 (10 nM)to Triton-X-treated synaptosomal membranes of rat forebrain was used to determine NMDA receptor affinity. Non-specific binding was determined using 10 μM L-glutamate. Samples were incubated in an ice-bath for 30 minutes, and bound ligand was separated from the free ligand by rapid filtration through WHATMAN GF/B glass fiber filters. Murphy et al, British J. Pharmacol., 95, 932-938 (1988). The concentration of the formula I compound that inhibited 50% binding (IC50, mean standard error, n=3)was calculated by linear regression of displacement data transformed to the Hill equation as described by Bennett. Bennett, Neurotransmitter Receptor Binding, 57-90 (1978).

NMDA receptor [2] = assay: [3H]MK-801 binding to well washed rat cortical membranes; settings: [3H]MK-801 2.5 nM, glutamate 0.001 μM and glycine 10 μM, 27° C., two hours, mean of three experiments
Description: The formula I compounds were also tested for their ability to inhibit NMDA receptor binding using [^3 H]MK-801 (New England Nuclear, Boston, Mass.). Rat brain cortices were extensively washed to remove endogenous glutamate and glycine. Cortices were homogenized in 20 volumes of ice-cold 0.32M sucrose and centrifuged at 1,000 xg for ten minutes. The supernatant was then centrifuged at 20,000 xg for 20 minutes. The resulting pellet was resuspended in 30 volumes of distilled water and centrifuged at 8,000 xg for 20 minutes. The resulting supernatant was centrifuged at 45,000 xg for 20 minutes and the pellet frozen in liquid nitrogen for at least 24 hours. On the day of the assay, the pellet was thawed at room temperature and resuspended in 30 volumes of ice-cold distilled water and centrifuged at 45,000 xg for 20 minutes. The final pellet was resuspended in 50 mM Tris (pH 7.4)at a concentration of 10 vol/gram wet weight of tissue.
The binding of [^3 H]MK-801 to well washed rat cortical membranes was conducted in the presence of added glutamate (0.001 μM) and glycine (10 μM). Antagonists were incubated with [^3 H]MK-801 (2.5 nM) and membrane aliquots (μg/ml protein)in a final volume of 1 ml at 27° C. for two hours. Nonspecific [^3 H]MK-801 binding was determined in the presence of 100 μM MK-801. Assays were terminated by filtering the samples over Whatman GF/B glass-fiber filters, presoaked in 0.05% polyethyleneimine, followed by a 10 ml ice cold saline wash.
These assays were performed in triplicate, and the mean values of three separate experiments were used to obtain the half maximal effective concentration. Final protein concentrations (0.5 mg/ml)for each assay were determined using the Lowry et al. (1951)method. Lowry, Rosebrough, Farr, and Randall, J. Biol. Chem., 193, 265-275 (1951). Analysis of the data was performed using a four-parameter logistic equation Graphpad Software San Diego, Calif.).

NMDA receptor [3] = assay: Antagonism of NMDA-induced depolarization of rat cortical wedges; type: cell-based; settings: for NMDA receptor antagonist activity: cortical wedge assay, Table II
Description: The depolarization of rat cortical wedges was used to test the selectivity and potency of the formula I compounds as NMDA antagonist using a technique similar to that described by Harrison and Simmonds. Harrison and Simmonds, Bri. J. Pharmacol., 84, 381-391 (1984). Generally, 4-ml aliguots of NMDA (40 μM)were superfused (2 ml/min)on the gray matter at intervals of 15 to 20 minutes until stable responses where obtained. The tissue was then exposed for 15 minutes to various concentrations of the formula I compounds before retesting the agonist. The IC50 values were calculated from linear regression of log dose-response curves, each point the mean of at least three observations on separate slices from more than one animal.
The cortical wedge assay distinguishes between agonist and antagonist activity.

CNS ischemia = settings: rabbits; cited from earlier work
focal cerebral ischemia [4] = settings: rats; cited from earlier work
[5] = tested on: warm water tail withdrawal; settings: rhesus monkeys; cited from earlier work
focal cerebral ischemia [6] = settings: cats; cited from earlier work
formalin model = settings: mouse; cited from earlier work

Row | SMILES | IC50 (NMDA receptor [1]) | IC50 (NMDA receptor [2]) [µM] | IC50 (NMDA receptor [3]; 0.25 h) [µM] | other results
1 | O=C(O)C1NCC2CCC(CSc3nn[nH]n3)C21 (stereo not drawn) [Compound 32, (1SR,2SR,5RS,8SR)-3-Aza-8-((1(2)H-tetrazole-5-thio)methyl)bicyclo[3.3.0]octane-2-carboxylic Acid] | 1.31 ± 0.48 µM | 27.8 ± 12.2 | 59.7 ± 10 | 
2 | O=C(O)[C@H]1C[C@@H](Cc2nn[nH]n2)CCN1 (relative stereo) [LY233053] |  |  |  | protection in CNS ischemia model (CNS ischemia): provided protection
3 | O=C(O)[C@H]1NC[C@@H]2CCC(CCc3nn[nH]n3)[C@@H]21 (stereo partly drawn) [Compound 21, (1SR,2SR,5RS,8SR)-3-Aza-8-(2-(1 (2)H-tetrazol-5-yl)ethyl)bicyclo[3.3.0]octane-2-carboxylic Acid and (1SR,2SR,5RS,8RS)-3-Aza-8-(2-(1(2)H-tetrazol-5-yl)ethyl)bicyclo[3.3.0]octane-2-carboxylic Acid] | 4.5 ± 0.98 µM | 37.7 ± 9.3 | > 100 | 
4 | O=C(O)[C@@H]1C[C@H](CP(=O)(O)O)CCN1 [CGS 19755] |  |  |  | protection in focal cerebral ischemia model (focal cerebral ischemia [4]): provided protection; analgesia in warm water tail withdrawal procedure [5]: analgesic
5 | O=C(O)[C@H]1NC[C@@H]2CCC(CCOCc3nn[nH]n3)[C@@H]21 (stereo partly drawn) [Compound 23, (1SR,2SR, 5RS,8SR)-3-Aza-8-(2-(1(2)H-tetrazol-5-ylmethoxy)ethyl)bicyclo[3.3.0]octane-2-carboxylic Acid and (1SR,2SR,5RS,8RS)-3-Aza-8-(2-(1(2)H-tetrazol-5-ylmethoxy)ethyl)bicyclo[3.3.0]octane-2-carboxylic Acid] | > 100 µM | > 100 |  | IC50 (NMDA receptor [3]; NMDA 40 μM, 15 min exposure to compound, rat cortical wedges, read-out: Antagonism of Cortical Wedge Depolarization IC50): > 100 µM
6 | O=C(O)CC1CC[C@H]2CN[C@H](C(=O)O)[C@@H]12 (stereo partly drawn) [Compound 13, (1SR,2SR,5RS,8SR)-3-Aza-8-(carboxymethyl)bicyclo[3.3.0]octane-2-carboxylicAcid and (1SR,2SR,5RS,8RS)-3-Aza-8-(carboxymethyl)bicyclo[3.3.0]octane-2-carboxylicAcid] | 1.19 ± 0.54 µM | 39 ± 8.7 | 52 ± 8 | 
7 | O=C(O)[C@H]1CN(C/C=C/P(=O)(O)O)CCN1 [D-(-)CPP-ene] |  |  |  | protection in focal cerebral ischemia model (focal cerebral ischemia [6]): provided protection
8 | O=C(O)[C@H]1NC[C@@H]2CCC(Cc3nn[nH]n3)[C@@H]21 (stereo partly drawn) [Compound 12, (1SR,2SR,5RS,8SR)-3-Aza-8-((1(2)H-tetrazol-5-yl)methyl)bicyclo[3.3.0]octane-2-carboxylic Acid and (1SR,2SR,5RS,8RS)-3-Aza-8-((1(2)H-tetrazol-5-yl)methyl)bicyclo[3.3.0]octane-2-carboxylic Acid] | 0.73 µM and < 1 µM | 49.7 ± 14.2 | 9.5 ± 5 | NMDA receptor antagonist activity (NMDA receptor [3]): NMDA receptor antagonists
9 | O=C(O)[C@H]1NC[C@@H]2CC[C@@H](Cc3nn[nH]n3)[C@@H]21 (relative stereo) [Compound 38, (1SR,2SR,5RS,8SR)-3-Aza-8-((1(2)H-tetrazol-5-yl)methyl)bicyclo[3.3.0]octane-2-carboxylic Acid] | 3.13 ± 0.58 µM | 47.3 ± 7.62 | > 100 | 
10 | O=C(O)[C@H]1NC[C@@H]2CCC(OCc3nn[nH]n3)[C@@H]21 (stereo partly drawn) [Compound 27, (1SR,2SR,5RS,8SR)-3-Aza-8-((1(2)H-tetrazol-5-yl)methoxy)bicyclo[3.3.0]octane-2-carboxylic Acid and (1SR,2SR,5RS,8RS)-3-Aza-8-((1(2)H-tetrazol-5-yl)methoxy)bicyclo[3.3.0]octane-2-carboxylic Acid] | 5.66 ± 0.15 µM | > 100 |  | 
11 | C[C@]12N[C@H](Cc3ccccc31)c1ccccc12 [dizocilpine] |  |  |  | protection in focal cerebral ischemia model (focal cerebral ischemia [6]): provided protection; protection in focal cerebral ischemia model (focal cerebral ischemia [4]): provided protection
12 | O=C(O)[C@H]1NC[C@@H]2CC[C@H](Cc3nn[nH]n3)[C@@H]21 (relative stereo) [Compound 33, (1SR,2SR,5RS,8RS)-3-Aza-8-((1(2)H-tetrazol-5-yl)methyl)bicyclo[3.3.0]octane-2-carboxylic Acid] | 0.67 µM and < 1 µM | 36.6 ± 7 | 28.6 ± 5.6 | NMDA receptor antagonist activity (NMDA receptor [3]): NMDA receptor antagonists
13 | O=C(O)[C@H]1NC[C@@H]2CCC(CCSc3nn[nH]n3)[C@@H]21 (stereo partly drawn) [Compound 22, (1SR,2SR,5RS,8SR)-3-Aza-8-(2-(1(2)H-tetrazole-5-thio)ethyl)bicyclo[3.3.0]octane-2-carboxylic Acid and (1SR,2SR,5RS,8RS)-3-Aza-8-(2-(1(2)H-tetrazole-5-thio)ethyl)bicyclo[3.3.0]octane-2-carboxylic Acid] | 26.1 ± 6.13 µM | > 100 |  | 
14 | O=C(O)CCC1CC[C@H]2CN[C@H](C(=O)O)[C@@H]12 (stereo partly drawn) [Compound 20, (1SR,2SR,5RS,8SR)-3-Aza-8-(2-carboxyethyl)bicyclo[3.3.0]octane-2-carboxylic Acid and (1SR,2SR,5RS,8RS)-3-Aza-8-(2-carboxyethyl)bicyclo[3.3.0]octane-2-carboxylic Acid] | 1.44 ± 0.04 µM | 47.3 ± 21 | > 100 | 
15 | NC(CCCP(=O)(O)O)C(=O)O (racemic) [DL-AP5] |  |  |  | analgesia in formalin model (formalin model): analgesic
